Test [1] relates to HepG2. Put plainly: Antiproliferative activity against human HepG2 cells assessed as cell growth inhibition at 1 uM measured after 72 hrs by MTT assay relative to control. It counts as functional. Particulars: read-out: GI. (In general: Tetrazolium assays rely on reduction of a dye to a coloured formazan, in cell work by metabolically active cells.)
Test [2] relates to HepG2. Put plainly: Antiproliferative activity against human HepG2 cells measured after 72 hrs by MTT assay. The settings on record: HepG2, 72 h. It counts as functional, cell-based.
Test [3] has as its system Bel-7402. The test is described as follows: Antiproliferative activity against human Bel-7402 cells measured after 72 hrs by MTT assay. Particulars: Bel-7402, 72 h. It counts as functional, cell-based.
Test [4] deals with HeLa. The test is described as follows: Antiproliferative activity against human HeLa cells measured after 72 hrs by MTT assay. It counts as functional, cell-based.
In test [5] the test system is ECa-109 cell line. The test is described as follows: Antiproliferative activity against human Eca-109 cells measured after 72 hrs by MTT assay. The format is functional, cell-based. The settings on record: ECa-109, 72 h.
Test [6] has as its system PANC-1. The test is described as follows: Antiproliferative activity against human PANC-1 cells measured after 72 hrs by MTT assay. The settings on record: PANC-1, 72 h. It counts as functional, cell-based.

We go through 33 compounds from ChEMBL document CHEMBL5113500, “New brefeldin A-cinnamic acid ester derivatives as potential antitumor agents: Design, synthesis and biological evaluation” (Eur J Med Chem, 2022).

A value given as a limit tells only on which side of the number the result lay.

For the compound `C[C@H]1CCC/C=C/[C@@H]2C[C@H](OC(=O)/C=C/c3ccc(C(F)(F)F)cc3)C[C@H]2[C@H](OC(=O)/C=C/c2ccc(C(F)(F)F)cc2)/C=C/C(=O)O1`, in test [1], the inhibition of growth at 1 µM turned out to be 4.3%.
Regarding `Cc1ccc(/C=C/C(=O)O[C@@H]2C[C@H]3[C@H](O)/C=C/C(=O)O[C@@H](C)CCC/C=C/[C@@H]3C2)cc1`, the inhibition of growth at 1 µM in test [1] worked out at 30.8%. Further, the half-maximal inhibitory concentration (IC50) in test [2] turned out to be 2870 nM; in test [3] it was 2140 nM; in test [4], 1910 nM; in test [5], 12500 nM; in test [6], 1350 nM.
For `C[C@H]1CCC/C=C/[C@@H]2C[C@H](OC(=O)/C=C/c3ccccc3)C[C@H]2[C@H](O)/C=C/C(=O)O1`, the inhibition of growth at 1 µM in test [1] amounted to 62.9%. Further, the half-maximal inhibitory concentration (IC50) in test [2] was found to be 1250 nM; in test [3], 1110 nM; in test [4] it was 530 nM; in test [5], 1210 nM; in test [6] it was 570 nM.
For `Cc1ccc(/C=C/C(=O)O[C@@H]2C[C@@H]3[C@H](/C=C/CCC[C@H](C)OC(=O)/C=C/[C@H]3OC(=O)/C=C/c3ccc(C)cc3)C2)cc1`, in test [1], the inhibition of growth at 1 µM is 5.2%.
Consider `C[C@H]1CCC/C=C/[C@@H]2C[C@H](O)C[C@H]2[C@H](OC(=O)/C=C/c2ccc3c(c2)OCO3)/C=C/C(=O)O1`, for which, in test [1], the inhibition of growth at 1 µM was found to be 54.5%. Also, the concentration for half-maximal inhibition (IC50) came out at 1350 nM in test [2]; 1070 nM in test [3]; 1650 nM in test [4]; 2200 nM in test [5]; 870 nM in test [6].
Take `C[C@H]1CCC/C=C/[C@@H]2C[C@H](O)C[C@H]2[C@H](OC(=O)/C=C/c2ccc(C(F)(F)F)cc2)/C=C/C(=O)O1`: the inhibition of growth at 1 µM in test [1] turned out to be 74.9%. Moreover, the IC50 came out at 510 nM in test [2]; 610 nM in test [3]; 340 nM in test [4]; 600 nM in test [5]; 580 nM in test [6].
As to `C[C@H]1CCC/C=C/[C@@H]2C[C@H](OC(=O)/C=C/c3cccc(Cl)c3)C[C@H]2[C@H](O)/C=C/C(=O)O1`, the inhibition of growth at 1 µM in test [1] turned out to be 68.1%. Also, the concentration for half-maximal inhibition (IC50) is 890 nM in test [2]; 720 nM in test [3]; 1100 nM in test [4]; 1450 nM in test [5]; 660 nM in test [6].
Turning to `C[C@H]1CCC/C=C/[C@@H]2C[C@H](O)C[C@H]2[C@H](OC(=O)/C=C/c2cccc(F)c2)/C=C/C(=O)O1`, in test [1], the inhibition of growth at 1 µM worked out at 68.3%. The concentration for half-maximal inhibition (IC50) is 490 nM in test [2]; 810 nM in test [3]; 700 nM in test [4]; 950 nM in test [5]; 360 nM in test [6].
For `C[C@H]1CCC/C=C/[C@@H]2C[C@H](OC(=O)/C=C/c3ccccc3F)C[C@H]2[C@H](OC(=O)/C=C/c2ccccc2F)/C=C/C(=O)O1`, in test [1], the inhibition of growth at 1 µM was found to be 8.4%.
Consider `C[C@H]1CCC/C=C/[C@@H]2C[C@H](O)C[C@H]2[C@H](OC(=O)/C=C/c2ccccc2F)/C=C/C(=O)O1`, for which the inhibition of growth at 1 µM in test [1] was found to be 58.3%. The concentration for half-maximal inhibition (IC50) in test [2] was found to be 1020 nM; in test [3], 1060 nM; in test [4] it was 1050 nM; in test [5], 1660 nM; in test [6], 1000 nM.
Consider `C[C@H]1CCC/C=C/[C@@H]2C[C@H](OC(=O)/C=C/c3cccc(F)c3)C[C@H]2[C@H](OC(=O)/C=C/c2cccc(F)c2)/C=C/C(=O)O1`, for which, in test [1], the inhibition of growth at 1 µM is 6.3%.
Regarding `C[C@H]1CCC/C=C/[C@@H]2C[C@H](O)C[C@H]2[C@H](OC(=O)/C=C/c2cccc(Cl)c2)/C=C/C(=O)O1`, the inhibition of growth at 1 µM in test [1] amounted to 77.4%. Moreover, the half-inhibitory concentration (IC50) in test [2] was 730 nM; in test [3] it was 640 nM; in test [4], 800 nM; in test [5] it was 740 nM; in test [6], 470 nM.
On to `Cc1ccccc1/C=C/C(=O)O[C@@H]1C[C@H]2[C@H](O)/C=C/C(=O)O[C@@H](C)CCC/C=C/[C@@H]2C1`, for which the inhibition of growth at 1 µM in test [1] came out at 28.9%. Moreover, the concentration for half-maximal inhibition (IC50) in test [2] was 2980 nM; in test [3], 2320 nM; in test [4] it was above 4000 nM; in test [5] it was above 4000 nM; in test [6], 2790 nM.
For the compound `Cc1cccc(/C=C/C(=O)O[C@@H]2C[C@H]3[C@H](O)/C=C/C(=O)O[C@@H](C)CCC/C=C/[C@@H]3C2)c1`, in test [1], the inhibition of growth at 1 µM is 34.7%. Moreover, the IC50 was 1890 nM in test [2]; 3290 nM in test [3]; 1120 nM in test [4]; 2100 nM in test [5]; 360 nM in test [6].
For `Cc1ccc(/C=C/C(=O)O[C@@H]2/C=C/C(=O)O[C@@H](C)CCC/C=C/[C@@H]3C[C@H](O)C[C@H]32)cc1`, in test [1], the inhibition of growth at 1 µM was found to be 64%. In addition, the IC50 in test [2] was found to be 1500 nM; in test [3], 970 nM; in test [4], 1310 nM; in test [5], 3590 nM; in test [6], 350 nM.
Take `Cc1ccccc1/C=C/C(=O)O[C@@H]1C[C@@H]2[C@H](/C=C/CCC[C@H](C)OC(=O)/C=C/[C@H]2OC(=O)/C=C/c2ccccc2C)C1`: in test [1], the inhibition of growth at 1 µM is 1.7%.
For the compound `C[C@H]1CCC/C=C/[C@@H]2C[C@H](OC(=O)/C=C/c3ccccc3F)C[C@H]2[C@H](O)/C=C/C(=O)O1`, in test [1], the inhibition of growth at 1 µM came to 71.1%. Further, the half-inhibitory concentration (IC50) in test [2] stood at 480 nM; in test [3], 820 nM; in test [4] it was 2790 nM; in test [5], 2420 nM; in test [6], 860 nM.
`C[C@H]1CCC/C=C/[C@@H]2C[C@H](OC(=O)/C=C/c3ccc(C(F)(F)F)cc3)C[C@H]2[C@H](O)/C=C/C(=O)O1`: the inhibition of growth at 1 µM in test [1] was found to be 86.7%. The half-inhibitory concentration (IC50) in test [2] came out at 420 nM; in test [3], 450 nM; in test [4], 460 nM; in test [5], 550 nM; in test [6] it was 460 nM.
Turning to `COc1cc(/C=C/C(=O)O[C@@H]2C[C@H]3[C@H](O)/C=C/C(=O)O[C@@H](C)CCC/C=C/[C@@H]3C2)cc(OC)c1OC`, in test [1], the inhibition of growth at 1 µM is 4.2%.
On the same count and under the same terms, to `C[C@H]1CCC/C=C/[C@@H]2C[C@H](OC(=O)/C=C/c3ccc(N(C)C)cc3)C[C@H]2[C@H](O)/C=C/C(=O)O1` belongs 47%; to `C[C@H]1CCC/C=C/[C@@H]2C[C@H](OC(=O)/C=C/c3ccccc3)C[C@H]2[C@H](OC(=O)/C=C/c2ccccc2)/C=C/C(=O)O1`, 20.4%; to `C[C@H]1CCC/C=C/[C@@H]2C[C@H](OC(=O)/C=C/c3cccc(Cl)c3)C[C@H]2[C@H](OC(=O)/C=C/c2cccc(Cl)c2)/C=C/C(=O)O1`, 6.4%.
On to `C[C@H]1CCC/C=C/[C@@H]2C[C@H](O)C[C@H]2[C@H](OC(=O)/C=C/c2ccccc2)/C=C/C(=O)O1`, for which, in test [1], the inhibition of growth at 1 µM was 64.7%. Also, the IC50 was found to be 570 nM in test [2]; 970 nM in test [3]; 1170 nM in test [4]; 1120 nM in test [5]; 420 nM in test [6].
On to `Cc1cccc(/C=C/C(=O)O[C@@H]2C[C@@H]3[C@H](/C=C/CCC[C@H](C)OC(=O)/C=C/[C@H]3OC(=O)/C=C/c3cccc(C)c3)C2)c1`, for which the inhibition of growth at 1 µM in test [1] is 6%.
`Cc1cccc(/C=C/C(=O)O[C@@H]2/C=C/C(=O)O[C@@H](C)CCC/C=C/[C@@H]3C[C@H](O)C[C@H]32)c1`: the inhibition of growth at 1 µM in test [1] came to 77.8%. Also, the concentration for half-maximal inhibition (IC50) in test [2] worked out at 560 nM; in test [3], 750 nM; in test [4] it was 870 nM; in test [5] it was 1090 nM; in test [6], 370 nM.
On to `C[C@H]1CCC/C=C/[C@@H]2C[C@H](O)C[C@H]2[C@H](OC(=O)/C=C/c2ccccc2Br)/C=C/C(=O)O1`, for which, in test [1], the inhibition of growth at 1 µM was 72.5%. In addition, the IC50 in test [2] stood at 520 nM; in test [3] it was 640 nM; in test [4], 740 nM; in test [5], 1140 nM; in test [6], 510 nM.
As for `C[C@H]1CCC/C=C/[C@@H]2C[C@H](OC(=O)/C=C/c3ccc(F)cc3)C[C@H]2[C@H](O)/C=C/C(=O)O1`, the inhibition of growth at 1 µM in test [1] is 69.7%. Moreover, the IC50 in test [2] worked out at 980 nM; in test [3] it was 1040 nM; in test [4], 3960 nM; in test [5], 2860 nM; in test [6], 670 nM.
As for `C[C@H]1CCC/C=C/[C@@H]2C[C@H](OC(=O)/C=C/c3ccccc3Br)C[C@H]2[C@H](OC(=O)/C=C/c2ccccc2Br)/C=C/C(=O)O1`, the inhibition of growth at 1 µM in test [1] came to 3.1%.
`COc1cc(/C=C/C(=O)O[C@@H]2/C=C/C(=O)O[C@@H](C)CCC/C=C/[C@@H]3C[C@H](O)C[C@H]32)cc(OC)c1OC`: the inhibition of growth at 1 µM in test [1] came to 65.1%. The IC50 in test [2] was 720 nM; in test [3] it was 1370 nM; in test [4] it was 1580 nM; in test [5], 2100 nM; in test [6], 820 nM.
Consider `C[C@H]1CCC/C=C/[C@@H]2C[C@H](OC(=O)/C=C/c3ccc4c(c3)OCO4)C[C@H]2[C@H](O)/C=C/C(=O)O1`, for which the inhibition of growth at 1 µM in test [1] was 3.7%.
Still for that read-out and setting: with `C[C@H]1CCC/C=C/[C@@H]2C[C@H](OC(=O)/C=C/c3ccc4c(c3)OCO4)C[C@H]2[C@H](OC(=O)/C=C/c2ccc3c(c2)OCO3)/C=C/C(=O)O1` the figure was 4.3%.
Same read-out and setting: with `COc1cc(/C=C/C(=O)O[C@@H]2C[C@@H]3[C@H](/C=C/CCC[C@H](C)OC(=O)/C=C/[C@H]3OC(=O)/C=C/c3ccc(OCc4ccccc4)c(OC)c3)C2)ccc1OCc1ccccc1` the figure was 2.7%; with `C[C@H]1CCC/C=C/[C@@H]2C[C@H](OC(=O)/C=C/c3ccc(F)cc3)C[C@H]2[C@H](OC(=O)/C=C/c2ccc(F)cc2)/C=C/C(=O)O1`, 8.1%.

The IC50 is the concentration that gives 50% inhibition. The low end stands for greater potency, the high end for weaker potency.
